Source: article PMC8119466, “A screen of FDA-approved drugs identifies inhibitors of protein tyrosine phosphatase 4A3 (PTP4A3 or PRL-3)” (Scientific Reports, 2021)
Where a name gives a salt, the structure may show the parent alone. Read-outs that look alike come from different tables or passages of the source.

Experiments:
Type in all cases: biochemical
recombinant PRL-3 = target: T1, recombinant PRL-3 (Homo sapiens, UniProt O75365); test: In vitro phosphatase assay (DiFMUP hydrolysis), PRL-3
T1 construct: 6xHis (N, cleaved yes); made in house; host or cells: E. coli One Shot BL21 Star

recombinant PRL-2 = target: T2, recombinant PRL-2 (Homo sapiens, UniProt Q12974); test: In vitro phosphatase assay (DiFMUP hydrolysis), PRL-2;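 further: PRL-2 activity read as DiFMUP hydrolysis after 20 min at room temperature with drug, enzyme first pre-reduced at 4 °C for 20 min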
T2 construct: 6xHis (N, cleaved yes); made in house; host or cells: E. coli One Shot BL21 Star
T2 sequence (Q12974 1-167): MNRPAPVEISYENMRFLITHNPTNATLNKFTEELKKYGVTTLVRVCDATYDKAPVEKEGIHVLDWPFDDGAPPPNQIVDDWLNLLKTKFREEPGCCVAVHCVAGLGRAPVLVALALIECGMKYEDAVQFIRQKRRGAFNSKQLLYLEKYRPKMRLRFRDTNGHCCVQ

recombinant PRL-1 = target: T3, recombinant PRL-1 (Homo sapiens, UniProt Q93096); test: In vitro phosphatase assay (DiFMUP hydrolysis), PRL-1
T3 construct: 6xHis (N, cleaved yes); made in house; host or cells: E. coli One Shot BL21 Star
T3 sequence (Q93096 1-173): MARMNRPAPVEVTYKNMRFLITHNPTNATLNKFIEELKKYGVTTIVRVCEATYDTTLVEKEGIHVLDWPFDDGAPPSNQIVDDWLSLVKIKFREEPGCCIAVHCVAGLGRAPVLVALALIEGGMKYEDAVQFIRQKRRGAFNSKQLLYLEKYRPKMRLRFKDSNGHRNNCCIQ

[1] = FDA-approved drug screen, compared to DMSO
[2] = FDA-approved drug screen, activity compared to DMSO

T1 sequence (O75365 whole entry): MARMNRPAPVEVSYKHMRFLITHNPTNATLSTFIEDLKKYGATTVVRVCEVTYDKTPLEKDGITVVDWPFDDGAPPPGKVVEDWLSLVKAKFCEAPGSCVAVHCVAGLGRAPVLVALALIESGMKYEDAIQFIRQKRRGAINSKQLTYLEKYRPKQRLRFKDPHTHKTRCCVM

SMILES	% Phosphatase Activity (compared to DMSO) PRL-3 (recombinant PRL-3; [1]) [%]	% Phosphatase Activity (compared to DMSO) PRL-2 (recombinant PRL-2; [1]) [%]	% Phosphatase Activity (compared to DMSO) PRL-1 (recombinant PRL-1; [1]) [%]	further results
CC(=O)OCC(=O)[C@H]1CC[C@H]2[C@@H]3CCC4=CC(=O)CC[C@]4(C)[C@H]3CC[C@]12C [Deoxycorticosterone acetate]	74	83	84	
CC1=NS(=O)(=O)c2cc(Cl)ccc2N1 [Diazoxide]	89	94	99	
COCCCOc1cc(C[C@@H](C[C@H](N)[C@@H](O)C[C@H](C(=O)NCC(C)(C)C(N)=O)C(C)C)C(C)C)ccc1OC [Aliskiren Hemifumarate]	102	122	102	
COc1ccccc1OCC(O)COC(N)=O (stereo not drawn) [Methocarbamol]	100	91	92	
CC(=O)Oc1cc(C(F)(F)F)ccc1C(=O)O [Triflusal]				% Phosphatase Activity (compared to DMSO) PRL-3 (recombinant PRL-3; [2]): 78%; % Phosphatase Activity (compared to DMSO) PRL-2 (recombinant PRL-2; [2]): 105%; % Phosphatase Activity (compared to DMSO) PRL-1 (recombinant PRL-1; [2]): 108%
O=C(O)c1cc(/N=N/c2ccc(S(=O)(=O)Nc3ccccn3)cc2)ccc1O [Sulfasalazine]				% Phosphatase Activity (compared to DMSO) PRL-3 (recombinant PRL-3; [2]): 59%; % Phosphatase Activity (compared to DMSO) PRL-2 (recombinant PRL-2; [2]): 50%; % Phosphatase Activity (compared to DMSO) PRL-1 (recombinant PRL-1; [2]): 67%
Cl.O=C1OC(CN2CCOCC2)CN1/N=C/c1ccc([N+](=O)[O-])o1 (stereo not drawn) [Furaltadone HCl]	65	80	74	
CCN1CCN(c2cc3c(cc2F)c(=O)c(C(=O)O)cn3C2CC2)CC1 [Enrofloxacin]	118	176	152	
NS(=O)(=O)c1cc(C(=O)O)c(NCc2ccco2)cc1Cl [Furosemide]	114	107	97	
CC(C)[C@H](N)C(=O)OCC(CO)OCn1cnc2c(=O)nc(N)[nH]c21 (stereo partly drawn) [Valganciclovir HCl]				% Phosphatase Activity (compared to DMSO) PRL-3 (recombinant PRL-3; [2]): 75%; % Phosphatase Activity (compared to DMSO) PRL-2 (recombinant PRL-2; [2]): 97%; % Phosphatase Activity (compared to DMSO) PRL-1 (recombinant PRL-1; [2]): 103%
CCN(CC)CC#CCOC(=O)C(O)(c1ccccc1)C1CCCCC1 (stereo not drawn) [Oxybutynin]	118	99	91	
N.N.O=C([O-])C1(C(=O)[O-])CCC1.[Pt+2] [Carboplatin]	85	79	90	
CNC[C@H](O)[C@@H](O)[C@H](O)[C@H](O)CO.Cc1c(Nc2ncccc2C(=O)O)cccc1C(F)(F)F [Flunixin Meglumin]	80	88	94	
CC[C@H]1OC(=O)[C@H](C)[C@@H](O[C@H]2C[C@@](C)(OC)[C@@H](O)[C@H](C)O2)[C@H](C)[C@@H](O[C@@H]2O[C@H](C)C[C@H](N(C)C)[C@H]2O)[C@](C)(O)C[C@@H](C)C(=O)[C@H](C)[C@@H](O)[C@]1(C)O [Erythromycin]	79	93	91	
CCCCCCCCCCCC1=C(O)C(=O)C=C(O)C1=O [Embelin, reference compound]	28	58	40	IC50 (recombinant PRL-3; 2.5 µM protein, DiFMUP at KM, read-out: Calculated IC50, PRL-3 phosphatase activity): 52 ± 9 µM; IC50 (recombinant PRL-2; 2.5 µM protein, DiFMUP at KM, read-out: Calculated IC50, PRL-2 phosphatase activity): 124 ± 60 µM; IC50 (recombinant PRL-1; 2.5 µM protein, DiFMUP at KM, read-out: Calculated IC50, PRL-1 phosphatase activity): 114 ± 16 µM
Cc1ccc(N(CC2=NCCN2)c2cccc(O)c2)cc1 [Phentolamine Mesylate]	90	117	92	
Cl.Cl.O=C(O)COCCN1CCN(C(c2ccccc2)c2ccc(Cl)cc2)CC1 (stereo not drawn) [Cetirizine DiHCl]				% Phosphatase Activity (compared to DMSO) PRL-3 (recombinant PRL-3): 84%; % Phosphatase Activity (compared to DMSO) PRL-2 (recombinant PRL-2): 89%; % Phosphatase Activity (compared to DMSO) PRL-1 (recombinant PRL-1): 92%
CC(C)NCC(O)COc1ccc(CCOCC2CC2)cc1 (stereo not drawn) [Betaxolol]				% Phosphatase Activity (compared to DMSO) PRL-3 (recombinant PRL-3): 80%; % Phosphatase Activity (compared to DMSO) PRL-2 (recombinant PRL-2): 124%; % Phosphatase Activity (compared to DMSO) PRL-1 (recombinant PRL-1): 109%
CN1C(=O)CCS(=O)(=O)C1c1ccc(Cl)cc1 (stereo not drawn) [Chlormezanone]	91	127	81	
CNC(=O)c1ccc(Nc2ncc(C(F)(F)F)c(NCc3nccnc3N(C)S(C)(=O)=O)n2)cc1 [Defactinib (VS-6063, PF-04554878)]	89	87	98	
CO/N=C(/C(=O)N[C@@H]1C(=O)N2C(C(=O)[O-])=C(CSc3nc(=O)c([O-])nn3C)CS[C@H]12)c1csc(N)n1.O.O.O.[Na+].[Na+] [Ceftriaxone Sodium Trihydrate]	108	115	102	
Cc1ccc(C(=O)N(CCCN)[C@@H](c2nc3cc(Cl)ccc3c(=O)n2Cc2ccccc2)C(C)C)cc1 [Ispinesib (SB-715992)]	80	108	103	
CN[C@@H]1[C@@H](O)[C@@H](O[C@@H]2[C@@H](O)[C@H](O[C@H]3OC(CN)=CC[C@H]3N)[C@@H](N)C[C@H]2N)OC[C@]1(C)O [Sisomicin sulfate]				% Phosphatase Activity (compared to DMSO) PRL-3 (recombinant PRL-3; [2]): 107%; % Phosphatase Activity (compared to DMSO) PRL-2 (recombinant PRL-2; [2]): 84%; % Phosphatase Activity (compared to DMSO) PRL-1 (recombinant PRL-1; [2]): 83%
CC(=O)O[C@]1(C(C)=O)CC[C@H]2[C@@H]3C=C(Cl)C4=CC(=O)[C@@H]5C[C@@H]5[C@]4(C)[C@H]3CC[C@@]21C [Cyproterone Acetate]	99	91	92	
C[C@]12CCC(=O)C(O)=C1CC[C@@H]1[C@@H]2CC[C@]2(C)C(=O)CC[C@@H]12 [Formestane]				% Phosphatase Activity (compared to DMSO) PRL-3 (recombinant PRL-3): 85%; % Phosphatase Activity (compared to DMSO) PRL-2 (recombinant PRL-2): 123%; % Phosphatase Activity (compared to DMSO) PRL-1 (recombinant PRL-1): 102%
C[C@H](Cn1cnc2c(N)ncnc21)OCP(=O)(O)O [Tenofovir]				% Phosphatase Activity (compared to DMSO) PRL-3 (recombinant PRL-3; [2]): 100%; % Phosphatase Activity (compared to DMSO) PRL-2 (recombinant PRL-2; [2]): 120%; % Phosphatase Activity (compared to DMSO) PRL-1 (recombinant PRL-1; [2]): 103%
CC(C)(C)C(=O)C(Oc1ccc(Cl)cc1)n1ccnc1 (stereo not drawn) [Climbazole]	73	94	87	
CC(=O)Oc1cc2c(s1)CCN(C(C(=O)C1CC1)c1ccccc1F)C2 (stereo not drawn) [Prasugrel]	79	88	91	
O=C(O)CCCc1ccccc1 [Sodium Phenylbutyrate]				% Phosphatase Activity (compared to DMSO) PRL-3 (recombinant PRL-3; [2]): 82%; % Phosphatase Activity (compared to DMSO) PRL-2 (recombinant PRL-2; [2]): 110%; % Phosphatase Activity (compared to DMSO) PRL-1 (recombinant PRL-1; [2]): 103%
